This is an account of results in patent US6440963B1, “Use of selective COX-2 inhibitors for the treatment of urinary incontinence” (Recordati S.A., Chemical and Pharmaceutical Company, priority 2001, dated 2002).

SMILES strings stand for the structures.

Data set [1] deals with rhythmic bladder voiding contractions. Nature of the data set: Volume-induced rhythmic bladder voiding contractions in anaesthetized rats. Format: in vivo, rat. To be noted: for Bladder quiescence (min ± S.E.): 60 min observation; for ED10 min (dose inducing a 10 min absence of bladder contractions) / Potency in inhibiting bladder voiding contractions (ED10min) compared with morphine: i.v.; for ED10 min (dose inducing a 10 min absence of bladder contractions): linear regression analysis; for Potency in inhibiting bladder voiding contractions (ED10min) compared with morphine: relative to morphine.
Method: In this method, the urinary bladder is catheterized through the external urethra with a polyethylene tubing filled with physiological saline. The external urethra is then ligated and connected to a pressure recording device. […] Test compounds are then administered intravenously and their effect evaluated for the following 60 min.
The animals were housed with free access to food and water and maintained on a 12 h alternating light-dark cycle at 22-24° C. for at least one week, except during the experiment. […] The catheter was then tied in place with a ligature around the external urethral orifice and connected to a conventional pressure transducer (Statham P23 ID/P23 XL). […] The bladder was then filled via the recording catheter with incremental volumes of warm (37° C.) saline until reflex bladder voiding contractions occurred (usually upon addition of 0.8-1.5 ml saline).
Bioactivity was assessed in individual animals (using 6-10 rats per dose) by measuring the duration of bladder quiescence (i.e., the duration of time during which no contractions occurred) over a 60 min period.

For data set [2], the system named is detrusor instability. To be noted: cited from earlier work; for Effect in patients with detrusor instability: double-blind controlled studies; for Gastrointestinal side effects: patients with detrusor instability.
For data set [3], the system named is bladder reflexes. The settings on record: following surgery or experimentally-induced inflammation; cited from earlier work.
Data set [4] relates to bladder contractions elicited by arachidonic acid. The settings on record: arachidonic acid on serosal surface of bladder; cited from earlier work.
Data set [5] deals with isolated rat bladder strips. To be noted: 1×10^−4M, 40 mM potassium; cited from earlier work.

Take `Cc1ccc(-c2cc(C(F)(F)F)nn2-c2ccc(S(N)(=O)=O)cc2)cc1` [Compound B]: the “Bladder quiescence (min ± S.E.)” value in data set [1] (0.01 mg/kg i.v.) is reported as 4.05 ± 0.68 min; in data set [1] (0.1 mg/kg i.v.), 10.53 ± 2.04 min; in data set [1] (1.0 mg/kg i.v.), 28.35 ± 5.19 min. Besides, in data set [1], the “ED10 min (dose inducing a 10 min absence of bladder contractions)” value (“ED10 min” for short) is recorded as “ED10 min = 0.044 mg/kg”. In data set [1], the “Potency in inhibiting bladder voiding contractions (ED10min) compared with morphine” value is on record as “similar”.
`CS(=O)(=O)c1ccc(C2=C(c3ccccc3)C(=O)OC2)cc1` [Compound C]: the “Bladder quiescence (min ± S.E.)” value in data set [1] (0.03 mg/kg i.v.) is on record as 3.75 ± 0.96 min; in data set [1] (0.1 mg/kg i.v.) it was 4.85 ± 1.80 min; in data set [1] (0.3 mg/kg i.v.), 16.44 ± 6.13 min. For the same compound, the “ED10 min” value in data set [1] was “ED10 min = 0.135 mg/kg”. Further, in data set [1], the “Potency in inhibiting bladder voiding contractions (ED10min) compared with morphine” value is given as “slightly lower”.
As to `COc1ccc2c(c1)c(CC(=O)O)c(C)n2C(=O)c1ccc(Cl)cc1` [Indomethacin], the entries for the “Bladder quiescence (min ± S.E.)” value in data set [1] (0.3 mg/kg i.v.), in data set [1] (1.0 mg/kg i.v.) and in data set [1] (3.0 mg/kg i.v.) were 4.39 ± 1.08 min, 7.91 ± 1.79 min and 35.00 ± 5.78 min, respectively. Besides, the “ED10 min” value in data set [1] was “ED10 min = 0.652 mg/kg”. Besides, the “Effect in patients with detrusor instability” value in data set [2] was “favorable effects”. Also, the Gastrointestinal side effects entry in data set [2] is recorded as “high incidence of gastrointestinal side effects”.
For `CN1CC[C@]23c4c5ccc(O)c4O[C@H]2[C@@H](O)C=C[C@H]3[C@H]1C5` [Morphine], the “Bladder quiescence (min ± S.E.)” value in data set [1] (0.01 mg/kg i.v.) was found to be 2.76 ± 0.93 min; in data set [1] (0.03 mg/kg i.v.) it was 6.89 ± 2.11 min; in data set [1] (0.1 mg/kg i.v.), 13.83 ± 2.40 min; in data set [1] (0.3 mg/kg i.v.), 18.17 ± 3.60 min. For the same compound, the “ED10 min” value in data set [1] is on record as “ED10 min = 0.050 mg/kg”.
For `CS(=O)(=O)Nc1ccc([N+](=O)[O-])cc1OC1CCCCC1` [NS-398], the “Effect on bladder reflexes” value in data set [3] was “normalized bladder reflexes”.
Turning to `C[C@H](C(=O)O)c1cccc(C(=O)c2ccccc2)c1` [dexketoprofen], in data set [4], the “Effect on bladder contractions elicited by arachidonic acid” value is given as “blocked”.
With `CC(C(=O)O)c1ccc(-c2ccccc2)c(F)c1` (centres unmarked) [flurbiprofen], in data set [2], the “Effect in patients with detrusor instability” value is “favorable effects” and the Gastrointestinal side effects entry is recorded as “high incidence of gastrointestinal side effects”.
As to `CS(=O)(=O)Nc1ccc([N+](=O)[O-])cc1Oc1ccccc1` [nimesulide], the Inhibition of contractility in data set [5] is reported as 42%.
